For six compounds, fold change (FC), Activity and inhibition results are on record in ChEMBL document CHEMBL3352354, “Novel FTY720-Based Compounds Stimulate Neurotrophin Expression and Phosphatase Activity in Dopaminergic Cells” (ACS Med Chem Lett, 2014).

The species entered for series [1] is Homo sapiens. In words: Induction of recombinant PP2A catalytic subunit (unknown origin) activity assessed as phosphate level at 5 uM relative to control.
Series [2] concerns MN9D. In words: Induction of PP2A catalytic subunit activity in mouse MN9D cells assessed as phosphate level at 5 uM. The class given is cell-based.
Series [3] in a line: Cytotoxicity against mouse MN9D cells assessed as metabolic activity at > 1.5 uM after 72 hrs by MTS assay. The class given is ADME, cell-based.
Series [4] can be described thus: Neuroprotective activity in mouse MN9D cells assessed as cell division at 0.04 to 0.16 uM after 72 hrs by DAPI staining (reference value: 100 +/- 4.15%). The class given is functional.
Series [5] can be described thus: Neuroprotective activity in mouse MN9D cells assessed as stimulation of BDNF expression at 0.16 uM after 24 hrs. The class given is functional, cell-based.
The test system of series [6] is MN9D. In words: Neuroprotective activity in mouse MN9D cells assessed as blocking of TNF-alpha associated toxicity at 0.16 uM after 72 hrs by Trypan blue staining. Type of series: functional, cell-based.
Series [7] is filed under the species Homo sapiens. In words: Induction of recombinant PP2A catalytic subunit (unknown origin) activity assessed as phosphate level using threonine-phosphopeptide at 5 uM.
Series [8] relates to PC-12. In words: Induction of PP2A catalytic subunit activity in rat PC12 cells assessed as phosphate level at 5 uM measured 30 to 120 mins. The class given is cell-based.

Active and inactive are the calls of the source. No cut-off for these calls is given here.

As for `CCCCCCCCc1ccc(CCC(CO)(CO)NC(=O)CC[P+](c2ccccc2)(c2ccccc2)c2ccccc2)cc1.[Br-]`, in series [1], the fold change (FC) came out at 4. Further, the result in series [2] and in series [5] was Active. In addition, the Activity entry in series [3] was “Toxic”; in series [4], 101.37%. In addition, in series [6], the inhibition result is “Active”.
As to `CCCCCCCCCCCCC/C=C/[C@H](O)[C@@H](CO)NC(C)=O`, in series [7], the result was Active. Also, the fold change (FC) in series [1] came to 8.
As for `CCCCCCCCCCCCC/C=C/[C@H](O)[C@@H](CO)NC(=O)CCCCCCCCC`, the outcome in series [7] was inactive.
Turning to `CCCCCCCCc1ccc(CCC(CO)(CO)NC(C)=O)cc1`, the fold change (FC) in series [1] worked out at 8. Besides, the outcome in series [2] and in series [5] was Active. The results for the Activity entry in series [3] and in series [4] were “Toxic” and 91.44%, respectively. The inhibition result in series [6] is “Active”.
`CCCCCCCCc1ccc(CCC(N)(CO)CO)cc1` [FINGOLIMOD]: the result in series [7], in series [8], in series [2] and in series [5] was Active. Moreover, the fold change (FC) in series [1] was 4. Further, the Activity entry in series [3] is reported as “Toxic”; in series [4], 98%. Moreover, in series [6], the inhibition entry is “Active”.
Turning to `CCCCCCCCCCCCC/C=C/[C@H](O)[C@@H](CO)NC(=O)CCCCC`, the outcome in series [7] was Active.
